Reference: US11578110B2, “Compounds for inducing tissue formation and uses thereof” (HISTIDE AG, priority 2015, dated 2023)
No end group written: not given here.

system: hMSCs; experiment: STRO-1 stemness marker expression in hMSCs (immunostaining, ImageJ quantification); assay type: cell-based, Human; details: SEQ ID NO: 1 to 49 tested in combination with a bioactive carrier (titanium, ceramics, PEEK, hydrogel, etc.)
Protocol: The cells were first fixed for 20 min with 4% paraformaldehyde/PBS at 4° C. After fixation, the cells were permeabilized in PBS containing 1% Triton X-100 for 15 min. Runx2, Osterix, Stro-1, Vinculin, Phalloidin, Osteopontin, Sox2, Sox9 antibodies were visualized by treating the cells with 1% (v/v) specific monoclonal antibodies for 1 hour at 37° C. Then the samples were incubated with Alexa fluor® 568 or 647 (F(ab′)2 fragment of IgG(H+L)) during 30 min at room temperature. The cell nuclei were counterstained in 20 ng/mL DAPI for 10 min at room temperature.
For this type of quantification the freeware image analysis ImageJ® software was used. The raw image was first converted to an 8-bit file, and then the unsharp mask feature was used (settings 1:0.2) to remove the image background (rolling ball radius 10). After smoothing, the resulting image, which appears similar to the original photomicrograph but with minimal background, was then converted to a binary image by setting a threshold. Threshold values were determined empirically by selecting a setting, which gave the most accurate binary image for a subset of randomly selected photomicrographs. The cell area was determined by manual delineation on raw fluorescent images. Total contact area and mean contact area per cell were calculated by “analyse particles” in ImageJ®. A minimum of 30 cells per condition were analyzed. Stro-1, CD-34+, and CD-105 expressions were determined using this procedure.
hMSCs were cultured on conventional cell culture plastic plates with or without the presence in the cell culture media of different GFR-binding compounds as defined hereins (SEQ ID NO: 50 to 104) in solution. […] This was probed by Stro-1 immunostaining after cell fixation as described in the Methods section. The quantification of Stro-1 positive contact numbers and areas was performed as described in the Methods section. A minimum of 30 cells per condition were analyzed.
RMSD values are always calculated for a GFR-binding peptide sequence exempt from any bioactive-carrier-affinity-containing group as defined herein (e.g. cysteine, WWFWG, GTPGP, etc. . . . ). When needed i.e. when attachment to a bioactive carrier is contemplated, the bioactive-carrier-affinity-containing group is then present in the GFR-binding compound when it is biologically tested. Using the method detailed in the description, the RMSD of 57 previously reported peptide sequences have been determined (Table 6) and correlated with the expression of STRO-1 after grafted on a PET surface via a procedure as already described above. […] One should note that it is commonly admitted that the expression of STRO-1 in a cell is indicative of a cell that is in a substantially non-differentiated state and the decrease of its expression of at least about 20% is indicative of a cell that has started a processes of differentiation but which may not result in the differentiation of the cell. A decrease of more than 50% would be indicative of the presence of a significant shift towards a differentiated state. A decrease of more than 70% would be indicative of the presence of a very important shift towards a differentiated state. A sustained decrease (e.g. for at least 96 h) of more than 50% or 70% would be indicative of the presence of an even more important shift towards a differentiated state.
Likewise, using the method detailed in the description, the RMSD of 87 GFR-binding peptide sequence representatives of the invention have been determined (Table 7) and correlated with the expression of STRO-1 after grafted on a PET surface via a procedure as already described above. SEQ ID NO: 1 to 49 were tested in combination with a bioactive carrier as defined above in the Examples Section (i.e. titanium, ceramics, PEEK, hydrogel, etc. . . . ), whereas SEQ ID NO: 1143 to 1180 were tested in solution.

In order of falling STRO-1 expression:
1. NDEGLESVPTGQNAISVLYF [SEQ ID NO: 17]  31%
2. RNVQSRPTQVQLNAISVLYF [SEQ ID NO: 11]  24%
3. TVPKPSSAPTQLSAISMLYL [SEQ ID NO: 18]  23%
4. VPAEESPISILYI (CVPAEESPISILYI; GFR-binding peptide) [SEQ ID NO: 48]  21%
5. VPAGQSPISILYI (CVPAGQSPISILYI; GFR-binding peptide) [SEQ ID NO: 46]  20%
6. STPPTSSVPTRLSAISMLYL [SEQ ID NO: 3]  19%
7. RNVQSRPTQVQLSAISMLYL [SEQ ID NO: 14]  16%
8. RVPSTSSVPAKTSPISILYI [SEQ ID NO: 43]  15%

same assay, conditions: SEQ ID NO: 1 to 49 tested in combination with a bioactive carrier (titanium, ceramics, PEEK, hydrogel, etc.), listed as 45

NDEGLESVPAEESPISILYI [SEQ ID NO: 45] was tested, and the STRO-1 expression was 16%.

same assay, conditions: SEQ ID NO: 1 to 49 tested in combination with a bioactive carrier (titanium, ceramics, PEEK, hydrogel, etc.), listed as 47

NDEGLESVPAEESPISILYI [SEQ ID NO: 47] gave an STRO-1 expression of 18%.

same assay, conditions: SEQ ID NO: 1143 to 1180 tested in solution

In order of falling STRO-1 expression:
1. STPPTSSTPTKMSNITTQIM (GFR-binding peptide) [SEQ ID NO: 1175]  27%
2. RVPSTSSVPAEESNITVQIM (GFR-binding peptide) [SEQ ID NO: 1176]  26%
3. STPPTSSVSQKMKPLSILYV (GFR-binding peptide) [SEQ ID NO: 1170]  25%
4. NDEGLESVPEDLSSLSVLFF (GFR-binding peptide) [SEQ ID NO: 1143]  23%
5. RVPSTSSAPTKMNAISMLYF (GFR-binding peptide) [SEQ ID NO: 1145]  23%
6. RVPSTSSTQVDLNAISVLYF (GFR-binding peptide) [SEQ ID NO: 1159]  23%
7. RVPSTSSAPTKMKPLSMLYV (GFR-binding peptide) [SEQ ID NO: 1169]  22%
8. STPPTSSVPTELSPISTLYK (GFR-binding peptide) [SEQ ID NO: 1147]  21%
9. RVPSTSSVPTGQSAISTLYL (GFR-binding peptide) [SEQ ID NO: 1144]  19%
10. STPPTSSAPVGQSPISMLYI (GFR-binding peptide) [SEQ ID NO: 1162]  19%
11. STPPTSSVPTEVSPINTLYF (GFR-binding peptide) [SEQ ID NO: 1166]  19%
12. RVPSTSSVPEKMEPLTMLYY (GFR-binding peptide) [SEQ ID NO: 1173]  18%
13. RVPSTSSTQVKMSAISMLYL (GFR-binding peptide) [SEQ ID NO: 1155]  17%
14. STPPTSSSRVQLSAISMLYL (GFR-binding peptide) [SEQ ID NO: 1154]  15%

same assay, conditions: grafted on a PET surface

In order of rising STRO-1 expression:
1. VPTKLSPISILYLDKGVVTYKFKYEGMSVAECGCR (Previously reported sequence) [SEQ ID NO: 1108, reference compound]  80%
2. VPTKLEPISVLYKDDMGVPTLKYHYEGMAVSECGCR (Previously reported sequence) [SEQ ID NO: 1105, reference compound]  81%
3. SPISILVVPELDASLPEKRPSLDGFEALLVYNAPKA (Previously reported sequence) [SEQ ID NO: 1106, reference compound]  82%
4. VPTKLSPISILYKDDMGVPTYKFKYEGMSVAECGCR (Previously reported sequence) [SEQ ID NO: 1109, reference compound]  82%
5. SRVLPIVVQGYVPVQDTKFLGIYYVIGPIIARVILSSSSAISSLNKS (Previously reported sequence) [SEQ ID NO: 1138, reference compound]  84%
6. TCCVPELSAISMLYLDEN (Previously reported sequence) [SEQ ID NO: 1131, reference compound]  84%
7. TLXPIVSSXNPSPISFRXIKILLHDLEVVPFPKSRVR (not fully specified; X: residue not identified in the source; ends and bridges not checked) [SEQ ID NO: 1107, reference compound]  84%
8. NPGASASPCCVSQDLEPLPIL (Previously reported sequence) [SEQ ID NO: 1098, reference compound]  86%
9. VPTELSPISLLYLDEFEKVTLKNYQDMVVDG (Previously reported sequence) [SEQ ID NO: 1110, reference compound]  87%
10. VGAAWWLREQGSPINTLAVPA (Previously reported sequence) [SEQ ID NO: 1103, reference compound]  88%
11. VHLLKPHAVPKACCAPTKLSATSVLYYDSSNNVILRKHRNMVVRACGCH (Previously reported sequence) [SEQ ID NO: 1118, reference compound]  88%
12. SFRTARANAPTGRSSLSGEKEQQEASTHS (Previously reported sequence) [SEQ ID NO: 1120, reference compound]  91%
13. SHQSAGDSIKSPARHSAPTHQEPLPD (Previously reported sequence) [SEQ ID NO: 1099, reference compound]  91%
14. SSVPAVCSATSATGPYSTATNTVVVFDVYATTVY (SSVPAVCSATSATGPYSTATNTVWFDVYATTVY; Previously reported sequence) [SEQ ID NO: 1117, reference compound]  91%
15. TKPLSSLLFPNWNTTTTPTPPRP (Previously reported sequence) [SEQ ID NO: 1101, reference compound]  91%
16. PIIYYVGRNVRVEQLSNMVVRA (Previously reported sequence) [SEQ ID NO: 1087, reference compound]  92%
17. SSVPAVCSATSATGPYSSGSVEVTFDVYATTVY (Previously reported sequence) [SEQ ID NO: 1116, reference compound]  92%
18. SVPAVCSATSATGPYSSVTVTSWPSIVATGGTT (Previously reported sequence) [SEQ ID NO: 1114, reference compound]  92%
19. SVPAVCSATSATGPYSTATNTVVVPSIVATGGTT [SEQ ID NO: 1115, reference compound]  92%
20. PNYSVPAGNKPLSERE (Previously reported sequence) [SEQ ID NO: 1100, reference compound]  95%
21. TPTYSRPVQKAELTR (Previously reported sequence) [SEQ ID NO: 1091, reference compound]  97%
22. NEVLRFCGIQVPEGDEPLT (Previously reported sequence) [SEQ ID NO: 1094, reference compound]  98%
23. PIIYYVGRNVRVEQLSNMVVRRA (Previously reported sequence) [SEQ ID NO: 1088, reference compound]  98%
24. SATSRLALSDVPAELAA (Previously reported sequence) [SEQ ID NO: 1112, reference compound]  98%
25. TPTVVSATSL (Previously reported sequence) [SEQ ID NO: 1111, reference compound]  98%
26. VEQLSNMVVK (Previously reported sequence) [SEQ ID NO: 1086, reference compound]  98%
